Key:
[1] = system: Wnt activity (Sp5-Luc reporter, SW480 colon carcinoma cells); experiment: Sp5-Luc reporter gene screening assay for Wnt activity in SW480 cells; format: cell-based; conditions: Homo sapiens
Excerpt: The screening assay for Wnt activity is described as follows. Reporter cell lines can be generated by stably transducing cancer cell lines (e.g., colon cancer) or primary cells (e.g., IEC-6 intestinal cells) with a lentiviral construct that includes a Wnt-responsive promoter driving expression of the firefly luciferase gene.
SW480 colon carcinoma cells were transduced with a lentiviral vector expressing luciferase with a human Sp5 promoter consisting of a sequence of eight TCF/LEF binding sites. SW480 cells stably expressing the Sp5-Luc reporter gene and a hygromycin resistance gene were selected by treatment with 150 μg/mL of hygromycin for 7 days. These stably transduced SW480 cells were expanded in cell culture and used for all further screening activities. […] For Sp5-Luc reporter gene assays, the cells were plated at 4,000 cells/well in 384-well plates with a DMEM medium containing 1% fetal bovine serum, and 1% Penicillin-Streptomycin and incubated for 36 to 48 hours at 37° C. and 5% CO2. Following incubation, 15 μl of BriteLite Plus luminescence reagent (Perkin Elmer) was added to each well of the 384-well assay plates. The plates were placed on an orbital shaker for 2 min and then luminescence was quantified using the Envision (Perkin Elmer) plate reader. Readings were normalized to DMSO only treated cells, and normalized activities were utilized for EC50 calculations using the dose-response log (inhibitor) vs. response-variable slope (four parameters) nonlinear regression feature available in GraphPad Prism 5.0 (or Dotmatics).

[2] = system: primary human mesenchymal stem cells (hMSCs); experiment: Chondrogenesis induction in hMSCs (Rhodamine B staining intensity, EC50); format: cell-based; conditions: 6 days, Rhodamine B staining intensity of nodules
Excerpt: Representative compounds were screened using primary human mesenchymal stem cells (hMSCs) to determine their ability to induce chondrogenesis (process by which cartilage is developed).
Primary human mesenchymal stem cells (hMSCs) were purchased from Lonza (Walkersville, Md.) and expanded in Mesenchymal Stem Cell Growth Media (Lonza). Cells between passage 2 and 4 were used for the experiments.
To image chondrogenic nodules, the cells were fixed using 4% formaldehyde (Electron Microscopy Sciences), and stained with 2 μg/mL Rhodamine B (Sigma-Aldrich) and 20 μM Nile Red (Sigma-Aldrich) [Johnson K., et. al, A Stem Cell-Based Approach to Cartilage Repair, Science, (2012), 336(6082). […] Rhodamine B staining intensity of nodules in each well was normalized to the average of 3 DMSO treated wells on the same plate using Excel (Microsoft Inc.). The normalized averages (fold change over DMSO) of 3 replicate wells for each compound concentration were calculated. EC50 values were calculated using non-linear regression curve fitting in Prism 8 (Graphpad Inc.). Due to solubility limitations of some of the compounds, curve fitting was incomplete, and the highest observed activity was extrapolated to the insoluble doses for accurate EC50 determinations.
EC50 values are reported. Further, using TGF-β3 as a positive control, the concentration of representative compounds required to induce equivalent levels of chondrogenesis is reported. In addition, the maximum activity of each compound and the respective dose that each compound reached maximum chondrogenesis activity is reported.

[3] = system: SW480 colon carcinoma cells; experiment: Cell viability assay (CellTiter-Glo) in SW480 cells; format: cell-based; conditions: Homo sapiens
Protocol: Representative compounds were screened using the assay procedure to assess the effect on cell viability as described below.
SW480 colon carcinoma cells were transduced with a lentiviral vector expressing luciferase with a human Sp5 promoter consisting of a sequence of eight TCF/LEF binding sites. SW480 cells stably expressing the Sp5-Luc reporter gene and a hygromycin resistance gene were selected by treatment with 150 μg/mL of hygromycin for 7 days. These stably transduced SW480 cells were expanded in cell culture and used for all further screening activities.
For the Cell Viability Assays, the cells were plated at 2,000 cells/well in 384-well plates with a DMEM medium containing 1% fetal bovine serum, and 1% Penicillin-Streptomycin and incubated for […] at 37° C. and 5% CO2. Eight replicates of DMSO-treated cells served as controls and cells treated with compound were performed in duplicate.
After incubation, 10 μL of CellTiter-Glo (Promega) was added to each well allowed to incubate for approximately 12 minutes. This reagent “results in cell lysis and generation of a luminescent signal proportional to the amount of ATP present. The amount of ATP is directly proportional to the number of cells present in culture, in agreement with previous reports. The CellTiter-Glo Assay generates a “glow-type” luminescent signal, produced by the luciferase reaction (Promega.com)”.

recombinant GSK3β kinase = recombinant GSK3β kinase (Homo sapiens (Human), UniProt P49841); experiment: GSK3β kinase assay (Ser/Thr 09 peptide Z-lyte, FRET); format: biochemical; conditions: 46 μM ATP, one hour at room temperature, read-out: EC50 (μM) (IC50 per method)
Excerpt: Representative compounds were screened using the assay procedure for GSK3β kinase activity as described below.
The GSK3β kinase assay is run using the Ser/Thr 09 peptide Z-lyte assay kit according to manufacturer's instructions (Life Technologies—a Division of Thermo-Fisher). This is a non-radioactive assay using fluorescence resonance energy transfer (FRET) between coumarin and fluorescein to detect kinase activity which is represented as ratio of coumarin emission/fluorescein emission.
Briefly, recombinant GSK3β kinase, ATP and Ser/Thr peptide 09 are prepared in 1× Kinase buffer to final concentrations of 0.04 μg/mL, 46 μM, and 4 μM respectively. The mixture is allowed to incubate with the representative compounds for one hour at room temperature. All reactions were performed in duplicate. Unphosphorylated (“0% Control”) and phosphorylated (“100% control”) forms of […] serve as control reactions.
After incubation, diluted Development Buffer is added to the reaction and allowed to further incubate for one hour at room temperature. The plate is read at Ex 400 Em 455 to detect the coumarin signal and Ex 400 Em 520 to measure the signal (EnVision Multilabel Plate Reader, PerkinElmer).
The Emission ratio (Em) is calculated as a ratio of the coumarin (C) emission signal (at 445 nm)/Fluorescein (F) emission signal (at 520 nm). The percent phosphorylation is then calculated using the following formula: [1−((Em ratio×F100%)−C100%)/((C0%−C100%)+(Em ratio×(F100%−F0%)))].
Dose-response curves are generated and inhibitory concentration (IC50) values are calculated using non-linear regression curve fit in the Dotmatics' Studies Software (Bishops Stortford, UK).

[4] = SW480, read-out: percent inhibition at 10 μM

Chain of recombinant GSK3β kinase (P49841 whole entry): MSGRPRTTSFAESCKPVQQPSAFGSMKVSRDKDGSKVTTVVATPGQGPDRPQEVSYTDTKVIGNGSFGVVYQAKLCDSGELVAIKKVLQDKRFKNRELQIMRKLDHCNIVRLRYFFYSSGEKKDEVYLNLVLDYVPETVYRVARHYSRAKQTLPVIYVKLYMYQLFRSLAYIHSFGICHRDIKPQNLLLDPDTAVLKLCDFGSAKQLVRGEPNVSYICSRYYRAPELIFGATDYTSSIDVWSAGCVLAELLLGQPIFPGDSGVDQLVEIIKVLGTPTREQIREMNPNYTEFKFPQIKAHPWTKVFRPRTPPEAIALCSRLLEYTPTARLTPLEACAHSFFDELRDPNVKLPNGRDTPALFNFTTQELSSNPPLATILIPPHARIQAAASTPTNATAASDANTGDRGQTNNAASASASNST

EC50 ([1]; Sp5-Luc reporter, SW480 cells, 36 to 48 hours): > 10000 nM
EC50 [2]: 147 nM
EC50 ([3]; 96 h, SW480 cell viability, four days, CellTiter-Glo): > 10000 nM
IC50 (recombinant GSK3β kinase): 0.088 µM
Structure (SMILES): O=C1NC2CCC(CC2)NCc2cncc(c2)-c2ccc3[nH]nc(c3c2)-c2nc3c1cccc3[nH]2 [Compound 64, (6^1s,6^4s,Z)-1^1H,2^1H-5,7-diaza-1 (2,4),2(3,5)-dibenzo[d]imidazola-3(3,5)-pyridina-6(1,4)-cyclohexanacyclooctaphan-8-one]
inhibition at 10 µM [1, 4]: 47.4%
inhibition at 10 µM [3, 4]: 15.8%
